The values that follow are results of earlier work, collected in US20230233697A1, “CYTOTOXIC BENZODIAZEPINE DERIVATIVES” (priority 2014, published 2023).

For the data set the following is noted: Phase I clinical evaluation; cited from earlier work.

`C=C1C[C@H]2C=Nc3cc(OCCCOc4cc5c(cc4OC)C(=O)N4CC(=C)C[C@H]4C=N5)c(OC)cc3C(=O)N2C1` [SJG-136]: the maximum tolerated dose was 45 μg/m^2.
